Consider 28 molecules from patent US20260226065A1, “SUBSTITUTED BENZENE COMPOUND” (DAIICHI SANKYO COMPANY, LIMITED, priority 2023, published 2026).

For the assay, the target named is T1, NLRP3 inflammasome (Homo sapiens, UniProt Q96P20).
T1 construct: endogenous in cells; host or cells: THP-1 (human monocyte-derived), PMA-differentiated, Nigericin-stimulated
In words: In vitro IL-1β production test (PMA-differentiated THP-1 cells, Nigericin stimulation, AlphaLISA). Format: cell-based. To be noted: inhibition of IL-1β production; THP-1 cells differentiated with 200 nM PMA; 0.015 mM Nigericin; 2 hours. The method, then:
Human monocyte-derived THP-1 cells were cultured for one day in 10% bovine serum-containing RPMI-1640 medium (Thermo #A10491-01) supplemented with 200 nM phorbol 12-myristate 13-acetate (PMA, Sigma #P8139) to induce differentiation.
NLRP3 inflammasome was induced by replacing the culture medium with bovine serum-free RPMI-1640 medium supplemented with 0.015 mM Nigericin (Sigma #SML1779) and the test compound of known concentrations.
After 2 hours, the culture medium supernatant was collected and the IL-1β protein concentration was measured using the AlphaLISA (registered trademark) assay (PerkinElmer #AL220C).
The IL-1β concentration without the addition of the test compound and with Nigericin stimulation was set as 0% inhibitory activity, and the IL-1β concentration without Nigericin stimulation was set as 100% inhibitory activity, and the inhibition rate (% inhibition) of the test compound at each added concentration was calculated.
The % inhibition value was subjected to sigmoid fitting using a logistic regression model to calculate the 50% inhibitory concentration (IC50 value).

T1 sequence (Q96P20 whole entry): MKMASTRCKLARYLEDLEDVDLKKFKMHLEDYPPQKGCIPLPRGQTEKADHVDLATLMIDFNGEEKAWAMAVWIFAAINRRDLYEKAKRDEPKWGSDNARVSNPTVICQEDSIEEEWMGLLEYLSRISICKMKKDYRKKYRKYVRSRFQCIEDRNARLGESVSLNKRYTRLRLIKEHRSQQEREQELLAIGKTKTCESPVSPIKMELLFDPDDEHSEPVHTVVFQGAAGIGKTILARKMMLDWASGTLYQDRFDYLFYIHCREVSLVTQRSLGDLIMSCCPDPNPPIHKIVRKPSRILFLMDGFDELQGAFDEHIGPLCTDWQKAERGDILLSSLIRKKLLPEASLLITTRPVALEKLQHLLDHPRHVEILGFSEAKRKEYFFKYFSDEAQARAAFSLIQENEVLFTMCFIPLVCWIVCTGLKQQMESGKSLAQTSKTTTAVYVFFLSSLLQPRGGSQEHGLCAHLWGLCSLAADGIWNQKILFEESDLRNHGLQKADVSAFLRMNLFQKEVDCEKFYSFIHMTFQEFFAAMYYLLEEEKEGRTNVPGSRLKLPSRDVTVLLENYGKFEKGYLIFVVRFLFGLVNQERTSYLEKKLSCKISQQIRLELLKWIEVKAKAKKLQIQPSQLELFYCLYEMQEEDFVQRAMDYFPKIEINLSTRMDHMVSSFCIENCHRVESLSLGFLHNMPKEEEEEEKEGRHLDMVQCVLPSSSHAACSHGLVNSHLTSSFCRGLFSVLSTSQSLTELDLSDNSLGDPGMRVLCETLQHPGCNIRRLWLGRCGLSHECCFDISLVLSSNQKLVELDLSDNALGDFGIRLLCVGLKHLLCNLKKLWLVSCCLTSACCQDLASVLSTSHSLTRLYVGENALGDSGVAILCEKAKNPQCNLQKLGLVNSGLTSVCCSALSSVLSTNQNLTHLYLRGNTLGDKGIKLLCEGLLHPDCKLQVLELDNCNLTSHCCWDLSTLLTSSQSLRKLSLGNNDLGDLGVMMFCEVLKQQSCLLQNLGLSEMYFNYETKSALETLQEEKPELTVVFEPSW

Regarding `Cc1cn([C@H]2C[C@@](C)(O)C2)c2nnc(-c3c(O)cc(C(F)(F)F)cc3C#N)cc12` [Example 53, 3-hydroxy-2-{7-[(1s,3s)-3-hydroxy-3-methylcyclobutyl]-5-methyl-7H-pyrrolo[2,3-c]pyridazin-3-yl}-5-(trifluoromethyl)benzonitrile], the half-maximal inhibitory concentration (IC50) turned out to be 275 nM. As for `Cc1cc(C(F)(F)F)cc(O)c1-c1cc2c(nn1)N([C@H]1C[C@@](C)(O)C1)CC2C` (mixture of isomers) [Example 85, 2-{7-[(1s,3s)-3-hydroxy-3-methylcyclobutyl]-5-methyl-6,7-dihydro-5H-pyrrolo[2,3-c]pyridazin-3-yl}-3-methyl-5-(trifluoromethyl)phenol], the figure is 65.3 nM. With `Cc1cc(C(F)(F)F)cc(O)c1-c1cc2scc(C3CCCN(C)C3)c2nn1` (racemic) [Example 95, 3-methyl-2-[7-(1-methylpiperidin-3-yl)thieno[3,2-c]pyridazin-3-yl]-5-(trifluoromethyl)phenol] the figure was 19.7 nM; with `Cc1cc(C(F)(F)F)cc(O)c1-c1cc2c(nn1)c(C1CCCN(C)C1)cn2C` (racemic) [Example 94, 3-methyl-2-[5-methyl-7-(1-methylpiperidin-3-yl)-5H-pyrrolo[3,2-c]pyridazin-3-yl]-5-(trifluoromethyl)phenol], 79.6 nM. The molecule `CCN1CCC[C@@H](N2CCc3cc(-c4c(C)cc(OC(F)F)cc4O)nnc32)C1` [Example 22, 5-(difluoromethoxy)-2-{7-[(3R)-1-ethylpiperidin-3-yl]-6,7-dihydro-5H-pyrrolo[2,3-c]pyridazin-3-yl}-3-methylphenol] gave an IC50 of 10.5 nM.

Regarding `Cc1cc(C(F)(F)F)cc(O)c1-c1cc2c(C)cn([C@@H]3CCCN(C)C3)c2nn1` [Example 56, 3-methyl-2-{5-methyl-7-[(3R)-1-methylpiperidin-3-yl]-7H-pyrrolo[2,3-c]pyridazin-3-yl}-5-(trifluoromethyl)phenol], the IC50 worked out at 14.4 nM.

Take `Cc1cc(C(F)(F)F)cc(O)c1-c1cc2c(Cl)cn([C@H]3C[C@@](C)(O)C3)c2nn1` [Example 6, 2-{5-chloro-7-[(1s,3s)-3-hydroxy-3-methylcyclobutyl]-7H-pyrrolo[2,3-c]pyridazin-3-yl}-3-methyl-5-(trifluoromethyl)phenol]: the 50% inhibitory concentration (IC50) was found to be 26 nM.

Regarding `Cc1cc(C(F)(F)F)cc(O)c1-c1cc2c(nn1)N([C@@H]1CCCN(C)C1)C[C@H]2C` (single isomer, unassigned) [Example 33, 3-methyl-2-{(5S or 5R)-5-methyl-7-[(3R)-1-methylpiperidin-3-yl]-6,7-dihydro-5H-pyrrolo[2,3-c]pyridazin-3-yl}-5-(trifluoromethyl)phenol], 10 nM corresponded to half-maximal inhibition (IC50). As for `Cc1cc(C(F)(F)F)cc(O)c1-c1cc2c(nn1)N([C@@H]1CCCN(C)C1)[C@H](C)C2` (single isomer, unassigned) [Example 55, 3-methyl-2-{(6R or 6S)-6-methyl-7-[(3R)-1-methylpiperidin-3-yl]-6,7-dihydro-5H-pyrrolo[2,3-c]pyridazin-3-yl}-5-(trifluoromethyl)phenol], the figure is 23.8 nM; as for `CCN1[C@H]2CC[C@@H]1[C@H](n1cc(C)c3cc(-c4c(C)cc(C(F)(F)F)cc4O)nnc31)CC2` (single isomer, unassigned) [Example 76, 2-{7-[(1R,2R,5S or 1S,2S,5R)-8-ethyl-8-azabicyclo[3.2.1]octan-2-yl]-5-methyl-7H-pyrrolo[2,3-c]pyridazin-3-yl}-3-methyl-5-(trifluoromethyl)phenol], 10.1 nM.

`Cc1cc(C#N)cc(O)c1-c1cc2c(C)cn([C@H]3C[C@@](C)(O)C3)c2nn1` [Example 52, 3-hydroxy-4-{7-[(1s,3s)-3-hydroxy-3-methylcyclobutyl]-5-methyl-7H-pyrrolo[2,3-c]pyridazin-3-yl}-5-methylbenzonitrile] registered a half-maximal inhibitory concentration (IC50) of 39.1 nM. `COc1cn([C@H]2C[C@@](C)(O)C2)c2nnc(-c3c(C)cc(Cl)cc3O)cc12` [Example 28, 5-chloro-2-{7-[(1s,3s)-3-hydroxy-3-methylcyclobutyl]-5-methoxy-7H-pyrrolo[2,3-c]pyridazin-3-yl}-3-methylphenol] displayed an IC50 of 12 nM. In turn, `Cc1cc(OC(F)F)cc(O)c1-c1cc2c3c(n([C@H]4C[C@@](C)(O)C4)c2nn1)CCC3` [Example 80, 5-(difluoromethoxy)-2-{8-[(1s,3s)-3-hydroxy-3-methylcyclobutyl]-5,6,7,8-tetrahydrocyclopenta[4,5]pyrrolo[2,3-c]pyridazin-3-yl}-3-methylphenol] came in with an IC50 of 22.4 nM. The molecule `Cc1cc(C(F)(F)F)cc(O)c1-c1cc2ccn(C[C@H](C)O)c2nn1` [Example 89, 2-{7-[(28)-2-hydroxypropyl]-7H-pyrrolo[2,3-c]pyridazin-3-yl}-3-methyl-5-(trifluoromethyl)phenol] displayed an IC50 of 138 nM. With `Cc1cc(Cl)cc(O)c1-c1cc2c3c(n([C@H]4C[C@@](C)(O)C4)c2nn1)CCC3` [Example 82, 5-chloro-2-{8-[(1s,3s)-3-hydroxy-3-methylcyclobutyl]-5,6,7,8-tetrahydrocyclopenta[4,5]pyrrolo[2,3-c]pyridazin-3-yl}-3-methylphenol] the figure was 7.83 nM; with `Cc1cc(C(F)(F)F)cc(O)c1-c1cc2c(nn1)N([C@H]1C[C@@](C)(O)C1)C(C)C2` (mixture of isomers) [Example 86, 2-{7-[(1s,3s)-3-hydroxy-3-methylcyclobutyl]-6-methyl-6,7-dihydro-5H-pyrrolo[2,3-c]pyridazin-3-yl}-3-methyl-5-(trifluoromethyl)phenol], 141 nM; with `Cc1cc(OC(F)F)cc(O)c1-c1cc2c(C#N)cn([C@@H]3CCCN(C(C)C)C3)c2nn1` [Example 68, 3-[4-(difluoromethoxy)-2-hydroxy-6-methylphenyl]-7-[(3R)-1-(propan-2-yl)piperidin-3-yl]-7H-pyrrolo[2,3-c]pyridazine-5-carbonitrile], 6.01 nM. With `Cc1cc2c(c(O)c1-c1cc3c(C)cn([C@H]4C[C@@](C)(O)C4)c3nn1)CCC2` [Example 43, 5-{7-[(1s,3s)-3-hydroxy-3-methylcyclobutyl]-5-methyl-7H-pyrrolo[2,3-c]pyridazin-3-yl}-6-methyl-2,3-dihydro-1H-inden-4-ol] the figure was 22.1 nM; with `CCN1C[C@H](F)C[C@@H](N2CCc3cc(-c4c(C)cc(C(F)(F)F)cc4O)nnc32)C1` [Example 66, 2-{7-[(3R,5R)-1-ethyl-5-fluoropiperidin-3-yl]-6,7-dihydro-5H-pyrrolo[2,3-c]pyridazin-3-yl}-3-methyl-5-(trifluoromethyl)phenol], 16.4 nM.

Consider `Cc1cc(C(F)(F)F)cc(O)c1-c1cc2c(nn1)N([C@@H]1CCCN(C3CC3)C1)CC2` [Example 18, 2-{7-[(3R)-1-cyclopropylpiperidin-3-yl]-6,7-dihydro-5H-pyrrolo[2,3-c]pyridazin-3-yl}-3-methyl-5-(trifluoromethyl)phenol], for which it took 6.65 nM to reach half-maximal inhibition (IC50).

As to `Cc1cc(C(F)(F)F)cc(O)c1-c1cc2cnn(C3CCCN(C)C3)c2nn1` (racemic) [Example 31, 3-methyl-2-[1-(1-methylpiperidin-3-yl)-1H-pyrazolo[3,4-c]pyridazin-5-yl]-5-(trifluoromethyl)phenol], it took 413 nM to reach half-maximal inhibition (IC50). As for `Cc1cc(C(F)(F)F)cc(O)c1-c1cc2c(C)c(C)n([C@H]3C[C@@](C)(O)C3)c2nn1` [Example 51, 2-{7-[(1s,3s)-3-hydroxy-3-methylcyclobutyl]-5,6-dimethyl-7H-pyrrolo[2,3-c]pyridazin-3-yl}-3-methyl-5-(trifluoromethyl)phenol], the figure is 33.6 nM; as for `CCc1cc(C)c(-c2cc3c(C)cn([C@H]4C[C@@](C)(O)C4)c3nn2)c(O)c1` [Example 62, 5-ethyl-2-{7-[(1s,3s)-3-hydroxy-3-methylcyclobutyl]-5-methyl-7H-pyrrolo[2,3-c]pyridazin-3-yl}-3-methylphenol], 70.8 nM. With `CCN1CCC[C@@H](n2cc(C)c3cc(-c4c(C)cc(OC(F)F)cc4O)nnc32)C1` [Example 71, 5-(difluoromethoxy)-2-{7-[(3R)-1-ethylpiperidin-3-yl]-5-methyl-7H-pyrrolo[2,3-c]pyridazin-3-yl}-3-methylphenol] the figure was 8.18 nM; with `CCN1[C@H]2CC[C@H](N3CCc4cc(-c5c(C)cc(C(F)(F)F)cc5O)nnc43)[C@@H]1CC2` (racemic) [Example 17, 2-{7-[(1S*, 2S*, 5R*)-8-ethyl-8-azabicyclo[3.2.1]octan-2-yl]-6,7-dihydro-5H-pyrrolo[2,3-c]pyridazin-3-yl}-3-methyl-5-(trifluoromethyl)phenol], 9.47 nM; with `CCN1CCC[C@@H](n2cc(OC)c3cc(-c4c(C)cc(C(F)(F)F)cc4O)nnc32)C1` [Example 77, 2-{7-[(3R)-1-ethylpiperidin-3-yl]-5-methoxy-7H-pyrrolo[2,3-c]pyridazin-3-yl}-3-methyl-5-(trifluoromethyl)phenol], 14 nM. With `Cc1cc(OC(F)F)cc(O)c1-c1cc2c(C)cn([C@H]3C[C@@](C)(O)C3)c2nn1` [Example 13, 5-(difluoromethoxy)-2-{7-[(1s,3s)-3-hydroxy-3-methylcyclobutyl]-5-methyl-7H-pyrrolo[2,3-c]pyridazin-3-yl}-3-methylphenol] the figure was 37.6 nM; with `Cc1cc(C(F)(F)F)cc(O)c1-c1cc2c(nn1)N([C@H]1CN(C)CC[C@H]1O)CC2` [Example 49, (3S,4R)-3-{3-[2-hydroxy-6-methyl-4-(trifluoromethyl)phenyl]-5,6-dihydro-7H-pyrrolo[2,3-c]pyridazin-7-yl}-1-methylpiperidin-4-ol], 78 nM.
